Laboratory results as given in patent US11912723B2, “KRAS modulators and uses thereof” (Quanta Therapeutics, Inc., priority 2022, dated 2024).

Legend:
[1] = biological target: T1, GST-tagged KRAS G12D (2-169) (Homo sapiens, UniProt P01116, G12D); test: Nucleotide exchange assay (NEA), HTRF of SOS-mediated GTP-DY-647P1 binding; assay type: biochemical; conditions: 5 nM GST-KRAS G12D, 20 nM SOScat, 150 nM GTP; compound 1 h at RT
T1 construct: GST-tagged KRAS^G12D (2-169, Reaction Biology, MSC-11-539); purchased Reaction Biology MSC-11-539 (KRAS G12D); MSC-11-502 (SOS1cat)
T1 sequence (P01116 2-169 isoform P01116-2 G12D): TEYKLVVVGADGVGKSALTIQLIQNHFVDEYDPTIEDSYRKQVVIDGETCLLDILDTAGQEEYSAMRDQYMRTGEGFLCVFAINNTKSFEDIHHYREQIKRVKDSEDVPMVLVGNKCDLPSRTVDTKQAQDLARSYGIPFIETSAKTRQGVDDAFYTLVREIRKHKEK
Outline: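 SOS1cat (564-1049)-driven loading of GTP-DY-647P1 onto KRAS G12D, read by HTRF with anti-GST Tb cryptate donor; compound preincubated with KRAS 1 h at RT. Final 5 nM KRAS, 20 nM SOScat, 150 nM GTP, pH 7.3 HEPES buffer; read up to 90 min at RT. Blanked to no-SOS1; 4-parameter fit of % inhibition.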

[2] = biological target: T2, KRAS G12D/RAF1 (Homo sapiens, UniProt P01116, G12D); test: Protein-protein interaction (PPI) HTRF assay KRAS G12D/RAF1; assay type: binding; conditions: KRAS G12D/RAF1, GppNHp-loaded KRAS; 30 minutes pre-incubation
T2 construct: KRAS (1-169) proteins were expressed in E. coli at 18° C; His6-MBP (N, cleaved yes); made in house; host or cells: E. coli
T2 sequence (P01116 1-169 isoform P01116-2 G12D): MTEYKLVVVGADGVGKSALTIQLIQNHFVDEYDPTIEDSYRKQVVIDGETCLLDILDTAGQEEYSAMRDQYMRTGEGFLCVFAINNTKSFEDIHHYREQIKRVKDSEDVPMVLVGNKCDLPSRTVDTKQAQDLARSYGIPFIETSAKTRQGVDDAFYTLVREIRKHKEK
Experimental: Biotinylated KRAS wt and KRAS G12DNV proteins were expressed and purified in conditions similar to those previously reported (Tran, et al., 2021) (Zhang, et al., 2020). Briefly, KRAS (1-169) proteins were expressed in E. coli at 18° C. with an upstream TEV cleavage site (ENLFYQS) followed an Avi tag sequence ([…]). KIRAS expression constructs contained both a His6 and maltose-binding protein (MBP) tags at the N-terminus for Ni-NTA column purification prior to overnight TEV cleavage and MBP column purification. The avi-tagged NRAS expression construct contained both a His6 tag and SUMO cleavage sige at the N-terminus for Ni-NTA column purification followed by His-ULP1 digestion overnight. All avi-tagged RAS proteins were dialyzed into buffer containing ATP, biotin, and BirA followed by purification over a second Ni-NTA column and then run over a size exclusion HiLoad™ 26/600 Superdex™ column in 20 mM HEPES, pH 7.5, 300 mM NaCl, 5 mM MgCl2, and 1 mM TCEP. Fractions containing the protein of interest were pooled, concentrated, and confirmed by intact mass spectrometry. To prepare ‘GTP’ loaded KRAS and NRAS, biotinylated KRAS or NRAS was nucleotide exchanged from GDP-bound protein to GppNHp-bound (Jena Biosciences, NU-401-50) protein in the presence of alkaline phosphatase and excess GppNHp as previously described and the resulting nucleotide content was confirmed by HPLC reverse phase analytical chromatography (Donohue, et al., 2019) (Tran, et al., 2021).
His-tagged RAF1 (52-131) was similarly expressed in E. coli at 18° C. overnight with an upstream TEV cleavage site. His-tagged RAF1 expression construct contained both a His6 and MBP tags at the N-terminus for Ni-NTA column purification followed by MBP-tagged TEV digestion overnight. RAF1 protein samples were further purified over a MBP column followed by a Ni-NTA column and a second MBP column. The fractions containing the protein of interest were pooled, concentrated, and further purified over a HiLoad™ 16/600 Superdex™ 75 pg size exclusion column into 20 mM HEPES, pH8.0, 200 mM NaCl, 5 mM TCEP.
When RAS proteins are in the active GTP-bound conformation, they bind the effector protein RAF1 at the N-terminus Ras-binding domain (RBD, residues 52-131) (Tran, et al., 2021). Homogenous time resolved fluorescence (HTRF) was used to monitor the interaction between wt or mutant KRAS and RAF1 or wt NRAS and RAFT. Compounds were assayed in the presence of KRAS G12D/V and RAF1 versus wt KRAS to assess activity against mutant and w.t. KRAS. Similarly, compounds were then assayed in the presence of w.t. NRAS and RAF1 to assess RAS isoform selectivity. In all assay formats, His-tagged RAF1 protein was incubated with the HTRF donor, anti-6His Tb Cryptate gold (Cisbio 61DB10RDF), and biotinylated RAS proteins were incubated with the HTRF acceptor, streptavidin-d2 (CisBio 610SADLA). The intensity of the fluorescence signal emitted is proportional to binding between the two proteins. The donor solution was prepared by mixing 16 nM His-tagged RAF1 in protein dilution buffer with 1:100 anti-6His Tb cryptate in PPI-Terbium detection buffer. 16 nM biotinylated RAS protein was diluted into protein dilution buffer (50 mM Tris-HCl pH 7.5, 150 mM NaCl, 0.1 mM MgCl2, 1 mM TCEP, 0.005% Tween20) and mixed with 1:2000 Streptavidin-d2 diluted in PPI-Terbium detection buffer (CisBio 61DB10RDF). 50× compound in DMSO was mixed with 16 nM KRAS-acceptor solution and incubated for 30 minutes at room temperature. After compound pre-incubation with KRAS, the RAF1 donor solution was added to the KRAS-acceptor solution and incubated for 1 hour at room temperature. The fluorescence signal emitted was monitored at 665 nm and 615 nm using an Envision multimode plate reader. The HTRF ratio (665/615) was calculated and normalized to 0% inhibition in the absence of compound and 100% inhibition in the presence of untagged RAF1 protein. […]

Row | SMILES | IC50 [1] | IC50 [2]
1 | CNCc1nn2c(c1Cl)CN(c1nc(OC[C@@]34CCCN3C[C@H](F)C4)nc3c1CO[C@@]1(CCc4c(Cl)cccc41)C3)CCC2 [Compound 59, 1-[3-chloro-5-[(7S)-4′-chloro-2-[[(2R,8S)-2-fluoro-1,2,3,5,6,7-hexahydropyrrolizin-8-yl]methoxy]spiro[5,8-dihydropyrano[4,3-d]pyrimidine-7,1′-indane]-4-yl]-4,6,7,8-tetrahydropyrazolo[1,5-a][1,4]diazepin-2-yl]-N-methyl-methanamine] | 10 to 100 nM | > 100000 nM
2 | CS(=O)(=O)c1cc2n(n1)CCCN(c1nc(OC[C@@]34CCCN3C[C@H](F)C4)nc3c1CO[C@@]1(CCc4c(Cl)cccc41)C3)C2 [Compound 62, (7S)-4′-chloro-2-[[(2R,8S)-2-fluoro-1,2,3,5,6,7-hexahydropyrrolizin-8-yl]methoxy]-4-(2-methylsulfonyl-4,6,7,8-tetrahydropyrazolo[1,5-a][1,4]diazepin-5-yl)spiro[5,8-dihydropyrano[4,3-d]pyrimidine-7,1′-indane]] | 10 to 100 nM | > 100000 nM
3 | CN1Cc2c(nc(OC[C@@]34CCCN3C[C@H](F)C4)nc2N2CCC[C@]3(C2)NC(=O)NC3=O)C[C@]12CCCc1ccccc12 [Compound 71, (5R)-9-[(7S)-2-[[(2R,8S)-2-fluoro-1,2,3,5,6,7-hexahydropyrrolizin-8-yl]methoxy]-6-methyl-spiro[5,8-dihydropyrido[4,3-d]pyrimidine-7,1′-tetralin]-4-yl]-1,3,9-triazaspiro[4.5]decane-2,4-dione] | 100 to 1000 nM | > 100000 nM
4 | Cc1noc(-c2cc3n(n2)CCCN(c2nc(OC[C@@]45CCCN4C[C@H](F)C5)nc4c2CN(C)[C@@]2(CCc5cccc(F)c52)C4)C3)n1 [Compound 73, 5-[5-[(7S)-7′-fluoro-2-[[(2R,8S)-2-fluoro-1,2,3,5,6,7-hexahydropyrrolizin-8-yl]methoxy]-6-methyl-spiro[5,8-dihydropyrido[4,3-d]pyrimidine-7,1′-indane]-4-yl]-4,6,7,8-tetrahydropyrazolo[1,5-a][1,4]diazepin-2-yl]-3-methyl-1,2,4-oxadiazole] | 10 to 100 nM | > 100000 nM
5 | Cc1noc(-c2cc3n(n2)CCCN(c2nc(OC[C@@]45CCCN4C[C@H](F)C5)nc4c2CN(C)[C@@]2(CCCc5ccccc52)C4)C3)n1 [Compound 74, 5-[5-[(7S)-2-[[(2R,8S)-2-fluoro-1,2,3,5,6,7-hexahydropyrrolizin-8-yl]methoxy]-6-methyl-spiro[5,8-dihydropyrido[4,3-d]pyrimidine-7,1′-tetralin]-4-yl]-4,6,7,8-tetrahydropyrazolo[1,5-a][1,4]diazepin-2-yl]-3-methyl-1,2,4-oxadiazole] | 10 to 100 nM | > 100000 nM
6 | CN(C)C(=O)c1nn2c(c1C#N)CN(c1nc(OC[C@@]34CCCN3C[C@H](F)C4)nc3c1CN(C)[C@@]1(CCc4cccc(F)c41)C3)CCC2 [Compound 76, 3-cyano-5-[(7S)-7′-fluoro-2-[[(2R,8S)-2-fluoro-1,2,3,5,6,7-hexahydropyrrolizin-8-yl]methoxy]-6-methyl-spiro[5,8-dihydropyrido[4,3-d]pyrimidine-7,1′-indane]-4-yl]-N,N-dimethyl-4,6,7,8-tetrahydropyrazolo[1,5-a][1,4]diazepine-2-carboxamide] | < 10 nM | 10000 to 100000 nM
7 | CN(C)C(=O)c1nn2c(c1C#N)CN(c1nc(OC[C@@]34CCCN3C[C@H](F)C4)nc3c1CN(C)[C@@]1(CCCc4ccccc41)C3)CCC2 [Compound 77, 3-cyano-5-[(7S)-2-[[(2R,8S)-2-fluoro-1,2,3,5,6,7-hexahydropyrrolizin-8-yl]methoxy]-6-methyl-spiro[5,8-dihydropyrido[4,3-d]pyrimidine-7,1′-tetralin]-4-yl]-N,N-dimethyl-4,6,7,8-tetrahydropyrazolo[1,5-a][1,4]diazepine-2-carboxamide] | < 10 nM | 10000 to 100000 nM
8 | CN1Cc2c(nc(OC[C@@]34CCCN3C[C@H](F)C4)nc2N2CCCn3nc(C(=O)O)c(Cl)c3C2)C[C@]12CCCc1ccccc12 [Compound 78, 3-chloro-5-[(7S)-2-[[(2R,8S)-2-fluoro-1,2,3,5,6,7-hexahydropyrrolizin-8-yl]methoxy]-6-methyl-spiro[5,8-dihydropyrido[4,3-d]pyrimidine-7,1′-tetralin]-4-yl]-4,6,7,8-tetrahydropyrazolo[1,5-a][1,4]diazepine-2-carboxylic acid] | < 10 nM | 10000 to 100000 nM
9 | CN1Cc2c(nc(OCC3(CN4CCOCC4)CC3)nc2N2C[C@H]3CC[C@@H](C2)N3)C[C@]12CCCc1ccccc12 [Compound 80, 4-[[1-[[(7S)-6-methyl-4-[(1R,5S)-3,8-diazabicyclo[3.2.1]octan-3-yl]spiro[5,8-dihydropyrido[4,3-d]pyrimidine-7,1′-tetralin]-2-yl]oxymethyl]cyclopropyl]methyl]morpholine] | 10 to 100 nM | 10000 to 100000 nM
10 | CN1Cc2c(nc(OC[C@@]34CCCN3C[C@H](F)C4)nc2N2CCCn3nc(-c4nc5ccccc5n4C)cc3C2)C[C@]12CCCc1ccccc12 [Compound 82, (7S)-2-[[(2R,8S)-2-fluoro-1,2,3,5,6,7-hexahydropyrrolizin-8-yl]methoxy]-6-methyl-4-[2-(1-methylbenzimidazol-2-yl)-4,6,7,8-tetrahydropyrazolo[1,5-a][1,4]diazepin-5-yl]spiro[5,8-dihydropyrido[4,3-d]pyrimidine-7,1′-tetralin]] | 10 to 100 nM | > 100000 nM
11 | CN1Cc2c(nc(OC[C@@]34CCCN3C[C@H](F)C4)nc2N2CCCn3nc(-c4nc5c(F)cccc5n4C)cc3C2)C[C@]12CCCc1ccccc12 [Compound 83, (7S)-2-[[(2R,8S)-2-fluoro-1,2,3,5,6,7-hexahydropyrrolizin-8-yl]methoxy]-4-[2-(4-fluoro-1-methyl-benzimidazol-2-yl)-4,6,7,8-tetrahydropyrazolo[1,5-a][1,4]diazepin-5-yl]-6-methyl-spiro[5,8-dihydropyrido[4,3-d]pyrimidine-7,1′-tetralin]] | 10 to 100 nM | > 100000 nM
12 | CN1Cc2c(nc(OC[C@@]34CCCN3C[C@H](F)C4)nc2N2C[C@H]3CC[C@@H](C2)[C@@H]3N)C[C@]12CCCc1ccccc12 [Compound 85, (1R,5S)-3-[(7S)-2-[[(2R,8S)-2-fluoro-1,2,3,5,6,7-hexahydropyrrolizin-8-yl]methoxy]-6-methyl-spiro[5,8-dihydropyrido[4,3-d]pyrimidine-7,1′-tetralin]-4-yl]-3-azabicyclo[3.2.1]octan-8-amine] | 1000 to 20000 nM | > 100000 nM
